Assay results as given in PubChem BioAssay AID248 (DTP/NCI, 2004).
“And” between values parts separate entries of the source, which are not always exact repeats. Equal entries are not always repeated. Inconclusive results and toxic doses are left out.

System: L1210 leukemia ip in BDF1 mice, survival T/C
Experiment: NCI In Vivo Anticancer Drug Screen. Data for tumor model L1210 Leukemia (intraperitoneal) in B6D2F1 (BDF1) mice
Settings: endpoint: mean survival time, higher = longer survival
How it was run: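 Antitumor effect is assessed in tumor-bearing animals. Survival in the compound arm is compared with a vehicle-dosed control arm and expressed as their quotient.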

[1] = dose: 100.0 mg/kg/injection, schedule: Q01DX009 (ip), vehicle: saline with Tween-80
[2] = dose: 100.0 mg/kg/injection, schedule: Q04DX003 (ip), vehicle: saline with Tween-80
[3] = dose: 200.0 mg/kg/injection, schedule: Q04DX003 (ip), vehicle: saline with Tween-80
[4] = dose: 400.0 mg/kg/injection, schedule: Q04DX003 (ip), vehicle: saline with Tween-80
[5] = dose: 100.0 mg/kg/injection, schedule: Q04DX002 (ip), vehicle: saline
[6] = dose: 50.0 mg/kg/injection, schedule: Q01DX001 (ip), vehicle: saline
[7] = dose: 100.0 mg/kg/injection, schedule: Q01DX001 (ip), vehicle: saline
[8] = dose: 100.0 mg/kg/injection, schedule: Q04DX003 (ip), vehicle: Klucel (hydroxypropylcellulose) (HPC)
[9] = dose: 100.0 mg/kg/injection, schedule: Q01DX005 (ip), vehicle: saline

SMILES: CCC(=O)/C=C/C1=C(C)CCCC1(C)C
- T/C [1]: 96 % of control
- T/C (dose: 100.0 mg/kg/injection, schedule: Q04DX003 (ip), vehicle: saline): 95 % of control
- T/C (dose: 200.0 mg/kg/injection, schedule: Q01DX009 (ip), vehicle: saline with Tween-80): 93 % of control
- T/C (dose: 200.0 mg/kg/injection, schedule: Q04DX003 (ip), vehicle: saline): 97 % of control
- T/C (dose: 400.0 mg/kg/injection, schedule: Q04DX003 (ip), vehicle: saline): 97 % of control

SMILES: CC(=Nc1cccc(C)c1C)c1c(O)cc(C)oc1=O
- T/C (dose: 100.0 mg/kg/injection, schedule: Q01DX009 (ip), vehicle: saline): 108 % of control
- T/C (dose: 200.0 mg/kg/injection, schedule: Q01DX009 (ip), vehicle: saline): 97 % of control
- T/C (dose: 400.0 mg/kg/injection, schedule: Q01DX009 (ip), vehicle: saline): 103 % of control

SMILES: CCc1nc(=S)c2[nH]cnc2[nH]1
- T/C [2]: 93 % of control
- T/C [3]: 90 % of control
- T/C [4]: 93 % of control

SMILES: Cc1cnc2nc(N)[nH]c(=O)c2c1
- T/C (dose: 100.0 mg/kg/injection, schedule: Q04DX003 (ip), vehicle: saline sonified): 98 % of control
- T/C (dose: 200.0 mg/kg/injection, schedule: Q04DX003 (ip), vehicle: saline sonified): 95 % of control
- T/C (dose: 400.0 mg/kg/injection, schedule: Q04DX003 (ip), vehicle: saline sonified): 95 % of control

SMILES: C=C(C)C1CC(=O)C2(C)OC2C1 (configuration not stated)
- T/C (dose: 75.0 mg/kg/injection, schedule: Q01DX001 (ip), vehicle: other): 102 % of control
- T/C (dose: 150.0 mg/kg/injection, schedule: Q01DX001 (ip), vehicle: other): 98 % of control
- T/C (dose: 300.0 mg/kg/injection, schedule: Q01DX001 (ip), vehicle: other): 94 % of control

SMILES: CN(C)CCNCC(Cc1ccccc1)c1ccccc1 (configuration not stated)
- T/C (dose: 25.0 mg/kg/injection, schedule: Q04DX002 (ip), vehicle: saline): 92 % of control
- T/C (dose: 50.0 mg/kg/injection, schedule: Q04DX002 (ip), vehicle: saline): 92 % of control
- T/C [5]: 100 % of control and 89 % of control

SMILES: O=[N+]([O-])c1cccc(SNc2cccc(Cl)c2)c1
- T/C [1]: 98 % of control
- T/C [2]: 93 % of control
- T/C [3]: 95 % of control
- T/C [4]: 90 % of control

SMILES: CC(=O)O[C@H]1[C@H]2O[C@]23[C@@H]2CC[C@@H]4C[C@@H](OC(=O)CCC(=O)O)CC[C@]4(C)[C@H]2CC[C@]3(C)[C@H]1c1ccc(=O)oc1
- T/C (dose: 0.13 mg/kg/injection, schedule: Q01DX009 (ip), vehicle: Klucel (hydroxypropylcellulose) (HPC)): 100 % of control
- T/C (dose: 0.25 mg/kg/injection, schedule: Q01DX009 (ip), vehicle: Klucel (hydroxypropylcellulose) (HPC)): 97 % of control
- T/C (dose: 0.5 mg/kg/injection, schedule: Q01DX009 (ip), vehicle: Klucel (hydroxypropylcellulose) (HPC)): 93 % of control
- T/C (dose: 1.0 mg/kg/injection, schedule: Q01DX009 (ip), vehicle: Klucel (hydroxypropylcellulose) (HPC)): 110 % of control

SMILES: O=C(Cl)C1C2C=CC(C2)C1C(=O)Cl (configuration not stated)
- T/C [6]: 108 % of control
- T/C [7]: 97 % of control

SMILES: C[N+](C)(C)c1ccc(N=Nc2ccccn2)cc1
- T/C [6]: 113 % of control

SMILES: CC(=O)C(C#N)c1ccccc1 (configuration not stated)
- T/C (dose: 25.0 mg/kg/injection, schedule: Q01DX009 (ip), vehicle: Klucel (hydroxypropylcellulose) (HPC)): 98 % of control
- T/C (dose: 25.0 mg/kg/injection, schedule: Q04DX003 (ip), vehicle: Klucel (hydroxypropylcellulose) (HPC)): 100 % of control
- T/C (dose: 50.0 mg/kg/injection, schedule: Q01DX009 (ip), vehicle: Klucel (hydroxypropylcellulose) (HPC)): 96 % of control
- T/C (dose: 50.0 mg/kg/injection, schedule: Q04DX003 (ip), vehicle: Klucel (hydroxypropylcellulose) (HPC)): 100 % of control
- T/C [8]: 97 % of control

SMILES: Cc1ncc(CS(=O)(=O)O)c(N)n1
- T/C (dose: 100.0 mg/kg/injection, schedule: Q01DX009 (ip), vehicle: Klucel (hydroxypropylcellulose) (HPC)): 92 % of control
- T/C [8]: 97 % of control
- T/C (dose: 200.0 mg/kg/injection, schedule: Q01DX009 (ip), vehicle: Klucel (hydroxypropylcellulose) (HPC)): 100 % of control
- T/C (dose: 200.0 mg/kg/injection, schedule: Q04DX003 (ip), vehicle: Klucel (hydroxypropylcellulose) (HPC)): 98 % of control
- T/C (dose: 400.0 mg/kg/injection, schedule: Q01DX009 (ip), vehicle: Klucel (hydroxypropylcellulose) (HPC)): 98 % of control
- T/C (dose: 400.0 mg/kg/injection, schedule: Q04DX003 (ip), vehicle: Klucel (hydroxypropylcellulose) (HPC)): 97 % of control

SMILES: CN=C(NC)c1ccc(NC(=O)c2cc(C(=O)Nc3ccc(C(=NC)NC)cc3)cc([N+](=O)[O-])c2)cc1
- T/C (dose: 2.0 mg/kg/injection, schedule: Q01DX Z (ip), vehicle: water): 97 % of control
- T/C (dose: 4.0 mg/kg/injection, schedule: Q01DX Z (ip), vehicle: water): 100 % of control
- T/C (dose: 7.5 mg/kg/injection, schedule: Q01DX Z (ip), vehicle: saline): 100 % of control
- T/C (dose: 7.5 mg/kg/injection, schedule: Q01DX Z (ip), vehicle: water): 112 % of control
- T/C (dose: 15.0 mg/kg/injection, schedule: Q01DX Z (ip), vehicle: saline): 96 % of control and 110 % of control
- T/C (dose: 15.0 mg/kg/injection, schedule: Q01DX Z (ip), vehicle: water): 108 % of control

SMILES: CCOCCN=Cc1ccccc1O.CCOCCN=Cc1ccccc1O.[Co]
- T/C [6]: 100 % of control
- T/C [7]: 98 % of control
- T/C (dose: 200.0 mg/kg/injection, schedule: Q01DX001 (ip), vehicle: saline): 96 % of control

SMILES: NOC(=O)c1ccccc1
- T/C [5]: 105 % of control
- T/C (dose: 200.0 mg/kg/injection, schedule: Q04DX002 (ip), vehicle: saline): 102 % of control

SMILES: Clc1ccc(Oc2nc3c(Cl)cccc3s2)cc1Cl
- T/C (dose: 100.0 mg/kg/injection, schedule: Q04DX002 (ip), vehicle: Klucel (hydroxypropylcellulose) (HPC)): 101 % of control
- T/C (dose: 200.0 mg/kg/injection, schedule: Q04DX002 (ip), vehicle: Klucel (hydroxypropylcellulose) (HPC)): 101 % of control
- T/C (dose: 400.0 mg/kg/injection, schedule: Q04DX002 (ip), vehicle: Klucel (hydroxypropylcellulose) (HPC)): 97 % of control

SMILES: CN(C)c1ccc(/C=N/NC(N)=S)nc1
- T/C (dose: 5.0 mg/kg/injection, schedule: Q03HX032 (ip), vehicle: saline with Tween-80): 116 % of control
- T/C (dose: 12.0 mg/kg/injection, schedule: Q03HX032 (ip), vehicle: saline with Tween-80): 158 % of control
- T/C (dose: 18.0 mg/kg/injection, schedule: Q03HX032 (ip), vehicle: saline with Tween-80): 188 % of control and 320 % of control
- T/C (dose: 19.0 mg/kg/injection, schedule: Q04DX003 (ip), vehicle: saline with Tween-80): 110 % of control
- T/C (dose: 44.0 mg/kg/injection, schedule: Q04DX003 (ip), vehicle: saline with Tween-80): 162 % of control
- T/C (dose: 67.0 mg/kg/injection, schedule: Q04DX003 (ip), vehicle: saline with Tween-80): 118 % of control
- T/C [3]: 113 % of control

SMILES: Cc1csc2c1c(N)nc(=O)n2C1OC(CO)C(O)C1O (configuration not stated)
- T/C [9]: 112 % of control
- T/C (dose: 200.0 mg/kg/injection, schedule: Q01DX005 (ip), vehicle: saline): 102 % of control

SMILES: Cc1c(C)c(O)c2c(c1C)C(C)C(=O)OC2=O (configuration not stated)
- T/C (dose: 5.0 mg/kg/injection, schedule: Q01DX001 (ip), vehicle: saline): 104 % of control
- T/C (dose: 10.0 mg/kg/injection, schedule: Q01DX001 (ip), vehicle: saline): 100 % of control
- T/C (dose: 20.0 mg/kg/injection, schedule: Q01DX001 (ip), vehicle: saline): 92 % of control
- T/C (dose: 40.0 mg/kg/injection, schedule: Q01DX001 (ip), vehicle: saline): 97 % of control

SMILES: COC(=O)/C=C/c1c[nH]c2nccnc12
- T/C (dose: 100.0 mg/kg/injection, schedule: Q01DX009 (ip), vehicle: water): 98 % of control
- T/C (dose: 100.0 mg/kg/injection, schedule: Q04DX003 (ip), vehicle: water): 101 % of control
- T/C (dose: 200.0 mg/kg/injection, schedule: Q01DX009 (ip), vehicle: water): 95 % of control
- T/C (dose: 200.0 mg/kg/injection, schedule: Q04DX003 (ip), vehicle: water): 98 % of control
- T/C (dose: 400.0 mg/kg/injection, schedule: Q01DX009 (ip), vehicle: water): 97 % of control
- T/C (dose: 400.0 mg/kg/injection, schedule: Q04DX003 (ip), vehicle: water): 102 % of control

SMILES: CC(C)=CCC/C(C)=C/Cn1cnc2c(ncn2C2OC(CO)C(O)C2O)c1=O (configuration not stated)
- T/C (dose: 12.5 mg/kg/injection, schedule: Q01DX009 (ip), vehicle: saline): 100 % of control
- T/C (dose: 25.0 mg/kg/injection, schedule: Q01DX005 (ip), vehicle: saline): 97 % of control
- T/C (dose: 25.0 mg/kg/injection, schedule: Q01DX009 (ip), vehicle: saline): 100 % of control
- T/C (dose: 50.0 mg/kg/injection, schedule: Q01DX005 (ip), vehicle: saline): 108 % of control
- T/C (dose: 50.0 mg/kg/injection, schedule: Q01DX009 (ip), vehicle: saline): 92 % of control
- T/C [9]: 96 % of control

SMILES: CC(=O)Nc1ccc(/C=N/Nc2c3ccccc3nc3ccccc23)cc1
- T/C [7]: 108 % of control
